The term inhibition denotes the drop in the measured response relative to a control, in per cent.

For data set [1], the system named is parental K562 cells (native ABCG2). Nature of the data set: Hoechst 33342 efflux (side population, SP) in parental K562 cells with and without inhibitors. The data set is classed as cell-based, human. The protocol: (§1) Cells were stained with anti-CD117 and incubated for 90 min in the presence of Ho33342 (8 microM, ˜5 microg/mL) and R123 (0.13 microM) with and without inhibitors. PI was added immediately before acquisition on the MoFlo flow cytometer in order to eliminate dead cells. Events were gated to exclude cell clusters and dead cells. The side population (SP) phenotype (blue gate) and R123 excluding cells (single parameter histogram left of the dashed line) were measured on CD117− (top panels) and CD117+ (bottom panels).
(§2) Here, the SP cells (within the blue gate in the left plots) is color evented blue, whereas SP negative cells are shown in gray.
(§3) Simultaneous measurement of R123 and Ho33342 dye efflux. […] Two cell lines were used, the parent line K562, which has a small subpopulation of CD117+ cells which constitutively express ABCG2 (BCRP1), and the ABCB1 (MDR1) transfectant line K562-G185 (39) (FIG. 9). G185 cells were maintained in vincristine (100 ng/mL) to select against ABCB1 negative cells.

Data set [2] concerns K562-G185 cells (ABCB1/MDR1 transfectant). The data set is described as follows: Hoechst 33342 efflux (side population, SP) in MDR1-transfected K562-G185 cells with and without inhibitors. The data set is classed as cell-based, human. Particulars: CD117- cells; Ho33342 8 microM and R123 0.13 microM, 90 min. The protocol:
as §1, §2, §3

The next data set relates to ABCG2 (BCRP). Nature of the data set: Hoechst 33342 / R123 efflux (SP phenotype) in freshly isolated therapy naive non-small cell lung tumor cells. Particulars: human, probe Hoechst 33342; inhibitor 10 microM; coincubation with Hoechst 33342 8 microM and R123 0.13 microM, 90 minutes at 37° C. The data set is classed as cell-based. As for the experimental part:
Antibody stained suspended tumor cells were incubated simultaneously with the ABCG2/ABCB1 substrate Hoechst 33342 (8 microM) plus the ABCB1 substrate rhodamine 123 (R123, 0.13 microM) for 90 minutes at 37° C. Propidium iodide (PI, 10 microg/mL) was added immediately before sample acquisition. All events were gated on PI excluding (live), non-hematopoietic singlets. Five million events were collected. This basic experimental design has been repeated, with modifications, on 10 samples from untreated breast, ovarian, gastric and lung tumors with consistent results.
SP (top panels) and non-SP cells (bottom panels) were further characterized: A proportion of SP cells also excluded the ABCB1 substrate dye R123. These accounted for 29% of the SP cells (color-evented red in the dot plots) and accounted for almost all of the cells with low forward and side light scatter consistent with a resting morphology (FIG. 5). […] A significant proportion of both SP and non-SP cells expressed CD90, often in combination with epithelial specific antigen, HEA.

For `COc1ccc2c3c([nH]c2c1)[C@H](C=C(C)C)N1C(=O)[C@@H]2CCCN2C(=O)[C@@H]1C3` [fumitremorgin], the “effect on Ho33342 transport, in words” value in data set [1] (CD117+ population of parental K562 cells) was “abrogates”. Moreover, the “inhibition of the native SP phenotype, in words” value in data set [1] (CD117- cells, native SP 1.42% of cells, Ho33342 8 microM, 90 min) is reported as “equally inhibited”. In addition, the “effect on the side population (SP), in words” value in data set [2] is reported as “not affected”. For the same compound, in the data set on ABCG2 (BCRP), the inhibition at 90 min, 10 microM amounted to 75%.

`CC[C@]1(O)C[C@H]2CN(CCc3c([nH]c4ccccc34)[C@@](C(=O)OC)(c3cc4c(cc3OC)N(C=O)[C@H]3[C@@](O)(C(=O)OC)[C@H](OC(C)=O)[C@]5(CC)C=CCN6CC[C@]43[C@@H]65)C2)C1` [vincristine]: in data set [2], the “effect on the side population (SP), in words” value was “not affected”.

These data come from US20070254319A1, “IDENTIFICATION OF A CONS[…] CANCER STEM CELL” (University of Pittsburgh - Of the Commonwealth System of …, priority 2006, published 2007).
